Measured values reported in patent US9061079B2, “Peptides that home to atherosclerotic plaques and methods of use” (Sanford-Burnham Medical Research Institute, priority 2011, dated 2015).
Ends that are not written are not given here. FAM = fluorescein label

How the values were obtained:
atherosclerotic plaques [1] = test: Homing of intravenously injected FAM-labeled peptides to plaques, fluorescence histology of aorta sections; assay type: in vivo, mice (ApoE-null); details: for accumulation in plaque tissue (fluorescence of aorta sections): atherosclerotic ApoE-null mice, 100 μg FAM-peptide intravenously, 1 hour circulation
Text: (§1) Atherosclerotic plaques in male and female mice homozygous for the ApoetmlUnc mutation (ApoE-null mice) (The Jackson Laboratory) were induced by maintaining the mice on a high fat diet (Reddick et al., Arterioscler. Thromb. 14:141-147 (1994); Maeda et al., Atherosclerosis 195:75-82 (2007)) for 6 to 8 months. Healthy aortas were obtained from age-matched C7BL/6 wild-type mice fed on a normal diet. The mice were housed and all procedures performed with the approval and according to standards of the University of California, Santa Barbara and University of California, Davis Institutional Animal Care and Use Committees. To test peptide homing, the mice were injected intravenously via retro-orbital under isoflurane inhalation (isoflurane 2% to 3% vol/vol+2 L/min O2) anesthesia and, when applicable, subsequently perfused with high glucose DMEM through the left ventricle to remove unbound reagent. Tissues were excised and left unfixed or fixed with 4% paraformaldehyde.
Fresh frozen OCT-embedded tissue was sectioned at 7 μm, fixed with ice cold acetone, blocked with 4% serum in PBS, and stained with antibodies. The following antibodies were used: anti-mouse p32 (rabbit polyclonal; (Fogal et al., supra (2008)), CD68 (rat monoclonal, eBioscience), CD11b (rat monoclonal, eBioscience), CD31 (rat monoclonal, eBioscience), podoplanin (hamster monoclonal, eBioscience), LYVE-1 (rat monoclonal, eBioscience), anti-FITC-HRP (goal polyclonal, ACRIS). Purified rat IgG2a K isotype control (BD Pharmingen), normal rabbit IgG (R&D) and normal goat IgG (R&D) were used as controls. The following secondary antibodies from Invitrogen were used for detection: goat anti-rat 488/546, goat anti-rabbit 488/546, donkey anti-goat 488/546, goat anti-hamster 546 and goat anti-rat 647. Primary antibodies were incubated for 1 to 4 hours at room temperature, or at 4° C. to detect cell surface expression. Stained tissue sections were mounted in Vectorshield DAPI-containing mounting media (Vector lab). […]
Tissue sections were examined under a FluoView™ 500 confocal laser-scanning microscope (Olympus) or BX60 fluorescence microscope with MiroFire camera (Olympus). Whole-tissue uptake of fluorescein-labeled peptides following in vivo circulation was imaged using a 530-nm viewing filter, Illumatool light source (Light Tools Research) and recorded with a Canon XTi DSLR camera.
To detect peptide homing to plaques, the distribution of intravenously injected peptides that had been labeled with fluorescein ([…]; FAM) were analyzed. […]
Atherosclerotic mice were injected with 100 μg of FAM-LyP-2 and the probe was allowed to circulate for 1 hour. Following 1 hour of circulation, the aorta was collected and the peptide was detected in tissue sections by fluorescence detection.

dermatitis = test: Treatment of dermatitis in ApoE-null mice on high-fat diet; assay type: in vivo
Experimental: The effect of LyP-1 treatment on dermatitis was tested. ApoE-null mice that were on a high-fat diet and suffered from severe dermatitis refractory to topical antibiotic treatment were treated with intraperitoneal injections of 200 μg of LyP-1 or control peptide ([…]; SEQ ID NO:6) three times a week for one month (while continuing their diet). The condition of the skin before and after the treatment was recorded in photographs. […] Thus, LyP-1 treatment improves dermatitis.
The effect of LyP-1 on skin dermatitis correlates with reduced in p32 expression and macrophage accumulation. Mice treated as above in FIG. 19 were intravenously injected with 100 μL of 1 mM fluorescein-labeled LyP-1 and peptide was allowed to circulate for 2 hours. Sections of skin biopsies obtained before and after 4 weeks of LyP-1 treatment were analyzed.

[2] = tested on: cells released from plaques; test: FACS analysis of cells released from plaques after in vivo circulation of FAM-peptides; set-up: species or system mice (ApoE-null); details: for % of FAM positive cells among cells released from plaques: after 4 hours in vivo circulation
Text: as §1
Cells from plaques and other tissues were released into suspension by 2-hour incubation at 37° C. in a tissue digestion cocktail containing 450 U/mL collagenase type 1 (Worthington Biochemical), 1 mg/mL soybean trypsin inhibitor (Worthington Biochemical), 4.7 U/mL elastase (Worthington Biochemical), 1 mg/mL DNase 1 (Sigma Aldrich) and 0.5% fetal calf serum (FCS). CD11b PE-Cy5 (rat monoclonal, eBioscience) was used to identify monocytes/macrophages. Positive cells were quantified on GUAVA FACS instrument (Millipore) and data were analyzed using FCS Express Version 3 (De Novo Software).
To detect peptide homing to plaques, the distribution of intravenously injected peptides that had been labeled with fluorescein ([…]; FAM) were analyzed. […] Staining with an anti-fluorescein antibody confirmed the presence of LyP-1 in the plaques. For comparison, mice were also injected with a peptide previously shown to home to plaques, CREKA (SEQ ID NO:4) (Peters et al., Proc. Natl. Acad. Sci. USA 106:9815-9819 (2009)). […]

[3] = tested on: primary cells released from plaques; test: Peptide binding ex vivo (FACS); assay type: cell-based, mice (ApoE-null); details: 1 nmol FAM-peptide, 10 min on ice
Experimental: (§2) Dead cells were first removed from the cell suspension released from aorta, isolated macrophages from 4T1 tumors and spleen and bone marrow cells using Dead cell removal kit (Miltenyi Biotec). Cells were incubated with 1 nmol of either FAM-LyP-1 or FAM-ARAL (SEQ ID NO:5) for 10 min on ice. After washing, the cell pellets were resuspended in buffer containing 1 μg propidium iodide. Cells positive for FAM and propidium iodide staining were quantified on GUAVA FACS instrument (Millipore) and data were analyzed using FCS Express Version 3 (De Novo Software). The % of viable cells after dead cell removal in each case was >75%.

[4] = tested on: CD11b-positive macrophages from 4T1-tumors; test: Peptide binding ex vivo (FACS); assay type: cell-based, mice (BALB/c); details: 1 nmol FAM-peptide, 10 min on ice
Experimental: (§3) To produce 4T1 tumors, normal female BALB/c mice were orthotopically injected into the mammary fat pad with 1×10^6 4T1 cells suspended in 100 μL of PBS. All animal experimentation received approval from the Animal Research Committee of University of California, Santa Barbara. Fully grown 4T1 tumors and control spleen were excised from the mice two weeks after inoculation, minced and incubated with tissue digestion cocktail containing 2 mg/mL Collagenase IV (Worthington Biochem Corp) and 1 mg/mL DNAse 1 (Sigma) solution in high glucose DMEM media (Gibco) at 37° C. for 1 hour. Cells were passed through 70 μm nylon mesh cell strainer (BD). CD11b-positive macrophages were isolated using the MACS CD11b-positive microbeads (Miltenyi Biotec).
as §2

[5] = tested on: monocytes/macrophages isolated from spleen; test: Peptide binding ex vivo (FACS); assay type: cell-based, mice; details: 1 nmol FAM-peptide, 10 min on ice
Experimental: as §3, §2

bone marrow cells = test: Peptide binding ex vivo (FACS); assay type: cell-based, mice (ApoE); details: 1 nmol FAM-peptide, 10 min on ice
Experimental: Bone marrow cells were isolated from the tibias and femurs of ApoE mice on high fat diet by flushing high glucose DMEM media (Gibco) using an 18 gauge needle and passed through a 70 μm nylon mesh cell strainer (BD).
as §2

4T1 tumors = test: Treatment of 4T1 tumor mice with peptide, effect on tumor macrophages; assay type: in vivo, mice (BALB/c); details: 60 μg daily tail vein injections for 12 days, versus control peptide
Experimental: The effect of LyP-1 peptide treatment of mice with tumors was tested. To produce 4T1 breast cancer tumors, normal female BALB/c mice were orthotopically injected into the mammary fat pad with 1×10^6 4T1 cells suspended in 100 μL of PBS. The mice were treated with daily tail vein injections of 60 μg of LyP-1 or control peptide ([…]; SEQ ID NO:6) for 12 days. […] Cell suspensions were prepared from 4T1 tumors from mice treated with LyP-1 or the control peptide. The tumors were incubated for 1 hour at 37° C. in a tissue digestion cocktail containing 2 mg/mL Collagenase IV (Worthington Biochem Corp) and 1 mg/mL DNAse 1 (Sigma) in high glucose DMEM media (Gibco). The resulting cell suspension was passed through 70 μm nylon mesh cell strainer (BD), and the live cells were double stained for cell surface p32 (rabbit anti-mouse p32, Fogal et al., supra (2008)) and macrophages (rat anti-mouse CD11b, ebioscience) and analyzed by FACS.

atherosclerotic plaques [6] = test: Effect of treatment on plaque formation; assay type: in vivo, mice (ApoE null); details: 200 μg intraperitoneally three times a week for one month, high-fat diet
Experimental: (§4) The effect of LyP-1 treatment on plaque formation was tested. ApoE null mice fed a high-fat diet for 5 months were treated with intraperitoneal injections of 200 μg of LyP-1 or control peptide ([…]; SEQ ID NO:6) three times a week for one month (while continuing their diet).

plaque macrophages = test: Effect of treatment on plaque macrophages (FACS of cells released from plaques); assay type: in vivo, mice (ApoE null); details: after 4 weeks of treatment, versus control-treated aortas
Experimental: as §4
The effect of LyP-1 treatment on plaque macrophages was tested.

[7] = tested on: porcine iliofemoral arteries; details: arteries infected with adenoviral vector encoding tk, then exposure to ganciclovir; cited from earlier work
mitochondrial membranes = details: concentration of 10 μM; cited from earlier work
[8] = 100 μL of 1 mM intravenously, 2 hours circulation
[9] = after 4 weeks of treatment, versus control-treated mice

FAM-LyP-1: LyP-1 peptide labeled with fluorescein (FAM) ({FAM}-CGNKRTRGC; disulfide (positions not given here); not fully specified (bridges); also: cyclic, kind not given here)
accumulation in plaque tissue (fluorescence of aorta sections) (atherosclerotic plaques [1]): extensive accumulation of FAM-LyP-1 inside the plaque tissue
peptide homing to healed dermatitis skin from LyP-1-treated mice (dermatitis; [8]): attenuated LyP-1 homing
peptide homing to inflamed skin from control-treated mice (dermatitis; [8]): robust LyP-1 homing
peptide homing to normal skin (dermatitis; [8]): no LyP-1 homing

CREKA
CD11b-positive plaque cells positive for peptide uptake ([2]; 4 hours after intravenous injection): taken up by a small number of CD11b-negative cells
% of FAM positive cells among cells released from plaques [2]: 18.1±4.6%

CGNKRTRGC (disulfide (positions not given here); not fully specified (bridges); also: cyclic, kind not given here) [LyP-1]
accumulation in healthy aortas and non-aortic tissues of the atherosclerotic mice (atherosclerotic plaques [1]; intravenous FAM-peptide): no significant accumulation
binding to primary cells released from plaques [3]: significant binding
binding to CD11b-positive macrophages from 4T1-tumors [4]: significant binding
binding to monocytes/macrophages isolated from spleen [5]: little binding
binding to bone marrow cells (bone marrow cells): little binding
macrophages positive for cell surface p32 in 4T1 tumors (4T1 tumors): reduced
total number of macrophages (CD11b-positive cells) in 4T1 tumors (4T1 tumors): reduced
skin condition (dermatitis) (dermatitis; 200 μg intraperitoneally three times a week for one month): significant improvement of their skin condition
cells positive for CD11b and p32 in skin (dermatitis; [9]): smaller numbers of cells positive for CD11b and p32
skin thickness of healed dermatitis skin (dermatitis; [9]): reduced thickness
plaque formation in excised ascending and descending aorta (atherosclerotic plaques [6]): reduced plaque formation
percentage of total macrophages (p32-positive and negative) among cells released from plaques (plaque macrophages): lower percentage of total macrophages

Nc1nc(O)c2ncn(COC(CO)CO)c2n1 [ganciclovir]
reduction of neointimal thickening following balloon injury [7]: 50-87%

FAM-CREKA: CREKA peptide labeled with fluorescein (FAM) ({FAM}-CREKA) [reference compound]
accumulation in plaque tissue (fluorescence of aorta sections) (atherosclerotic plaques [1]): essentially confined to the surface of the plaques

FAM-ARALPSQRSR: control peptide ARALPSQRSR labeled with FAM ({FAM}-ARALPSQRSR) [reference compound]
accumulation in plaque tissue (fluorescence of aorta sections) (atherosclerotic plaques [1]): did not accumulate in the plaques

ARALPSQRSR
% of FAM positive cells among cells released from plaques [2]: 7.5±4.1%

D(KLAKLAK)2 (KLAKLAKKLAKLAK; D-amino acids)
mitochondrial swelling (mitochondrial membranes): marked mitochondrial swelling
